The values that follow come from PMC7562955 (Nature Communications, 2020).

One data set addresses T1, human TLR8 (Homo sapiens, UniProt Q9NR97).
T1 construct: host or cells: HEK293 (TLR8/NF-κB/SEAPorter)
T1 sequence (Q9NR97 27-1041): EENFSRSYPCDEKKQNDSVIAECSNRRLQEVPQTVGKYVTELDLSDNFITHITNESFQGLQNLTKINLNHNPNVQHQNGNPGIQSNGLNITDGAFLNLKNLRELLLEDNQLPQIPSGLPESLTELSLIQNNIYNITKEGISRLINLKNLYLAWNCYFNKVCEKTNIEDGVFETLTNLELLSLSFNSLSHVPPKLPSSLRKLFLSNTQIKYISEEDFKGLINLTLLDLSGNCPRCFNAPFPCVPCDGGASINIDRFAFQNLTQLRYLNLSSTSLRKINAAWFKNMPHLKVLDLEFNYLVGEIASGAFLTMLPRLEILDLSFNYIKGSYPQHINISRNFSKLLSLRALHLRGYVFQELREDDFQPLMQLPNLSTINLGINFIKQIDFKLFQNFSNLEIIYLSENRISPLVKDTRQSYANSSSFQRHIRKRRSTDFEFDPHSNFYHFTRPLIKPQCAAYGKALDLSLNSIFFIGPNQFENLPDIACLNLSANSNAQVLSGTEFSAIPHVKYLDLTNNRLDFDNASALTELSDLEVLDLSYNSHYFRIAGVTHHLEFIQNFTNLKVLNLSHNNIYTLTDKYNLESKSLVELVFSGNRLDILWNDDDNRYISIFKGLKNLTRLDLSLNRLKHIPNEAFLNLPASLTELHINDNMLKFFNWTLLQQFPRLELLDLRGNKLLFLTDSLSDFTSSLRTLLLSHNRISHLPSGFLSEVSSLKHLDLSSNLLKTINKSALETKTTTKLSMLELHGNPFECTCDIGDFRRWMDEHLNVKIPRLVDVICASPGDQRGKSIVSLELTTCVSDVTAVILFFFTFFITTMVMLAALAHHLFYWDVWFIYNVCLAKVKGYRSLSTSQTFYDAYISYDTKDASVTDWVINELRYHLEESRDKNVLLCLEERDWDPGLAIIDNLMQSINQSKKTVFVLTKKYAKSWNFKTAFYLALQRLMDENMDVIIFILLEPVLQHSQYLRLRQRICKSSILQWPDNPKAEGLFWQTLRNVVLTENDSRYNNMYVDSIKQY
The experiment in a line: Human TLR8 reporter gene inhibitory activity assay (NF-κB/SEAP HEK293). The format is cell-based. More on the design: key to human TLR8 activity, reporter signal: SEAP activity as absorbance at 405 nm. Particulars: for human TLR8 activity, reporter signal: R848 30 μM. The procedure: Compounds were dissolved in dimethyl sulfoxide. Before stimulation with compound, Human TLR7 reporter cell line (TLR7/NF-κB/SEAPorter^TM HEK293 cell, Novus Biological, USA), human TLR8 reporter cell line (TLR8/NF-κB/SEAPorter^TM HEK293 cell, Novus Biological), and human TLR9 reporter cell line (TLR9/NF-κB/SEAPorter^TM HEK293 cell, Novus Biological) were seeded in 96-well microtiter plate (AGC techno glass, Japan) at 5 × 10^4 cells/well in DMEM (GIBCO, United Kingdam) with 10 % fetal bovine serum (GIBCO), and 10 ug/ml Blastcidin S HCl (GIBCO) and incubated at 37 °C in 5% CO2. […] The plates were then incubated an additional 20 ± 1 h at 37 °C in 5% CO2 and then the secreted embryonic alkaline phosphatase (SEAP) activity was measured as activation of human TLR7, 8, and 9. The SEAP activity was evaluated as follows: pNPP (Invitrogen, USA) was added to the incubated sample (50 μl/well); after 15 min, 4 M sodium hydroxide solution (nacalai tesque, Japan) was added thereto (50 μl/well) to quench the reaction; and the absorbance of each sample was measured at 405 nm with microplate reader SpectraMax M4 (Molecular Devices, USA).

Data set [1] is described as follows: Solubility measurement in isotonic buffer. The settings on record: isotonic disodium hydrogen phosphate/citric acid buffer, 25 °C, aqueous buffer, kinetic from dmso stock; pH 7.4 buffer. The format is physicochemical. The procedure: Compound was dissolved in dimethyl sulfoxide at 10 mM. A 1.75% disodium hydrogen phosphate aqueous solution and a 5.53% citric acid aqueous solution were mixed while monitoring with a pH meter to prepare an isotonic buffer solution having a pH of 7.4. The dimethyl sulfoxide solution and the isotonic buffer solution of pH 7.4 was mixed and shaken at 110 rpm for 90 min at 25 °C by a constant temperature incubator shaker. After standing for 16–20 h, the mixture was centrifuged to precipitate insoluble matter, and the supernatant was collected. Separately, standard solutions of the compound were prepared by dissolving the compound in a mixture of acetonitrile and water (1:1). The analytical sample and the standard solutions were measured by UHPLC-UV (Waters, USA). The degree of solubility was calculated by comparing the peak area of the analytical sample with standard solutions.

The target of another data set is T2, TLR1/2 (Homo sapiens, UniProt O60603+Q15399).
T2 construct: Human Peripheral Blood Mononuclear cells (hPBMCs) were collected from healthy adult donors; endogenous in cells; host or cells: primary human PBMCs
The experiment in a line: TNF-α production by human PBMC stimulated by TLR1/2 ligand Pam3CSK4 (ELISA). The settings on record: human PBMCs, 2.5 μM. It is filed as cell-based. In general terms: ELISA stands for enzyme-linked immunosorbent assay.

≈ marks a conversion by molar mass, not a printed value. A value given as a limit tells only on which side of the number the result lay.

T2 sequence (Q15399 25-786): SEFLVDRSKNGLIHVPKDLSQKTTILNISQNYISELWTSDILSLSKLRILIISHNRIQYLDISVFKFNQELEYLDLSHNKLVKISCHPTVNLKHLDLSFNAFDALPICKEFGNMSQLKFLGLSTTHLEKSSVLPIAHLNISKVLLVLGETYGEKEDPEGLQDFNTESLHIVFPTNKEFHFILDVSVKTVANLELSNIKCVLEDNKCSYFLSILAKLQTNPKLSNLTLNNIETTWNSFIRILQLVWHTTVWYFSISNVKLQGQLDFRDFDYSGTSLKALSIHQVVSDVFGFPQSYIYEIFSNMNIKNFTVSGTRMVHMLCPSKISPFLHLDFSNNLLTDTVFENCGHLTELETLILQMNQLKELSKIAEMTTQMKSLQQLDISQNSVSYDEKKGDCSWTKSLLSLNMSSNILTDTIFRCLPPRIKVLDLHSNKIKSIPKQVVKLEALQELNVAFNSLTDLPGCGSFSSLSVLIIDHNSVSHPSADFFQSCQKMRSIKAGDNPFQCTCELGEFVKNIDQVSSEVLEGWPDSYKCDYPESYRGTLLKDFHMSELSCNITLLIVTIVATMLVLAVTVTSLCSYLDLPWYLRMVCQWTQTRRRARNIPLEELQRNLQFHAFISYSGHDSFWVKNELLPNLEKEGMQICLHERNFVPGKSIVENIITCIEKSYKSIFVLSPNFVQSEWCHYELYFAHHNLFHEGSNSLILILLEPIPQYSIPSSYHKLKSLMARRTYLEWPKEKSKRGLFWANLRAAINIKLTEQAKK
T2 sequence (O60603 19-784 limits assumed): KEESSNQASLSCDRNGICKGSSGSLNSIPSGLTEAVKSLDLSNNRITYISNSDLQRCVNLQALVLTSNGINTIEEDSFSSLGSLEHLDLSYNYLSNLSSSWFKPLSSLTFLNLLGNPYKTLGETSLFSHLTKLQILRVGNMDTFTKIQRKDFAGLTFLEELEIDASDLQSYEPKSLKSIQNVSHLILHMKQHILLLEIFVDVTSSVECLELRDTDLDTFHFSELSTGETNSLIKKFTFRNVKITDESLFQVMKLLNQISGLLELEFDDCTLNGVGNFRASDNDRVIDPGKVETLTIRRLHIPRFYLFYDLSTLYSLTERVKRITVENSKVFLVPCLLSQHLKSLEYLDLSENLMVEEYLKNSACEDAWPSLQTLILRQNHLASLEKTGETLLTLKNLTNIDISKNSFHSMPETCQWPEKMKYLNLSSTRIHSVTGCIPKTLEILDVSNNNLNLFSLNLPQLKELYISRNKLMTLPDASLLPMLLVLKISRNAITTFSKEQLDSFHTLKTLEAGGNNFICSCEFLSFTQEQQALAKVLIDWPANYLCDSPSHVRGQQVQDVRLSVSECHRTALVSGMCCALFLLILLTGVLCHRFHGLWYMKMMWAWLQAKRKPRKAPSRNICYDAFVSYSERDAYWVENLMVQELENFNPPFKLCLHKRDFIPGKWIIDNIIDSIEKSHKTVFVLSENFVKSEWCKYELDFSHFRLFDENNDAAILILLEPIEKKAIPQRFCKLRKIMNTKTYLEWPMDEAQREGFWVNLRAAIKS

For `CCCCOc1nc(N)c2nc(-c3cccnc3)n(Cc3ccccc3)c2n1` [Cpd-5], the “inhibition of TLR8” value at human TLR8 was “without causing any inhibition”. Further, the “human TLR8 activity, reporter signal” value on human TLR8 (compound 0.0001 nM (as headed)) is reported as 2.52; on human TLR8 (compound 0.001 nM (as headed)) it was 2.344; on human TLR8 (compound 0.003 nM (as headed)), 2.316; on human TLR8 (compound 0.01 nM (as headed)), 2.3178; on human TLR8 (compound 0.03 nM (as headed)), 2.3193; at human TLR8 (compound 0.1 nM (as headed)), 2.309. Besides, the “human TLR8 activity, reporter signal” value on human TLR8 (compound 0.3 nM (as headed)) was determined as 2.404; on human TLR8 (compound 1 nM (as headed)), 2.342; on human TLR8 (compound 3 nM (as headed)), 2.269; on human TLR8 (compound 10 nM (as headed)) it was 2.216; at human TLR8 (compound 30 nM (as headed)), 2.0417; on human TLR8 (compound 100 nM (as headed)), 2.1673. In data set [1], this compound gave a solubility at 90 min of 0.3 µg/mL (≈ 0.801 µM).
As for `CCOc1nc(N)c2nc(-c3cncc(F)c3)n(Cc3ccc(CN4C[C@@H]5C[C@H]4CN5C)cc3)c2n1` [Cpd-6], the “human TLR8 activity, reporter signal” value on human TLR8 (compound 0.0001 nM (as headed)) was 2.3942; on human TLR8 (compound 0.001 nM (as headed)) it was 2.34; at human TLR8 (compound 0.003 nM (as headed)), 2.276; on human TLR8 (compound 0.01 nM (as headed)), 2.199; on human TLR8 (compound 0.03 nM (as headed)), 2.181; on human TLR8 (compound 0.1 nM (as headed)), 2.241. The “human TLR8 activity, reporter signal” value is listed as 2.31 on human TLR8 (compound 0.3 nM (as headed)); 2.218 on human TLR8 (compound 1 nM (as headed)); 2.159 on human TLR8 (compound 3 nM (as headed)); 2.04 on human TLR8 (compound 10 nM (as headed)); 1.859 on human TLR8 (compound 30 nM (as headed)); 1.331 at human TLR8 (compound 100 nM (as headed)). Further, the solubility at 90 min in data set [1] is above 150 µg/mL. Also, the cytotoxicity entry on TLR1/2 was “not cytotoxic”.
`CCOc1nc(C)c2nc(-c3cncc(F)c3)n(Cc3ccc(CN4C[C@@H]5C[C@H]4CN5C)cc3)c2n1` [Cpd-7]: the “human TLR8 activity, reporter signal” value on human TLR8 (compound 0.0001 nM (as headed)) came to 2.3942; at human TLR8 (compound 0.001 nM (as headed)), 2.221; on human TLR8 (compound 0.003 nM (as headed)), 2.201; on human TLR8 (compound 0.01 nM (as headed)), 2.199; on human TLR8 (compound 0.03 nM (as headed)), 2.25; on human TLR8 (compound 0.1 nM (as headed)), 2.186. In addition, the “human TLR8 activity, reporter signal” value was 2.297 at human TLR8 (compound 0.3 nM (as headed)); 2.272 at human TLR8 (compound 1 nM (as headed)); 2.178 at human TLR8 (compound 3 nM (as headed)); 2.071 at human TLR8 (compound 10 nM (as headed)); 1.909 at human TLR8 (compound 30 nM (as headed)); 1.678 on human TLR8 (compound 100 nM (as headed)). This compound also showed a solubility at 90 min in data set [1] above 150 µg/mL. Besides, the cytotoxicity result at TLR1/2 is listed as “not cytotoxic”.

By solubility is commonly meant the concentration that dissolves in the medium under given conditions.
